Reference: patent US20170247393A1, “Aminoisoxazoline Compounds as Agonists of Alpha7-Nicotinic Acetylcholine Receptors” (Forum Pharmaceuticals, Inc., priority 2015, published 2017)
Structures can show the parent of a compound that is named as a salt.

The compounds below were run against T1, human 5-HT3 serotonin receptors (Homo sapiens, UniProt P46098) (assay: biochemical). Conditions: not given.
T1 sequence (P46098 24-478): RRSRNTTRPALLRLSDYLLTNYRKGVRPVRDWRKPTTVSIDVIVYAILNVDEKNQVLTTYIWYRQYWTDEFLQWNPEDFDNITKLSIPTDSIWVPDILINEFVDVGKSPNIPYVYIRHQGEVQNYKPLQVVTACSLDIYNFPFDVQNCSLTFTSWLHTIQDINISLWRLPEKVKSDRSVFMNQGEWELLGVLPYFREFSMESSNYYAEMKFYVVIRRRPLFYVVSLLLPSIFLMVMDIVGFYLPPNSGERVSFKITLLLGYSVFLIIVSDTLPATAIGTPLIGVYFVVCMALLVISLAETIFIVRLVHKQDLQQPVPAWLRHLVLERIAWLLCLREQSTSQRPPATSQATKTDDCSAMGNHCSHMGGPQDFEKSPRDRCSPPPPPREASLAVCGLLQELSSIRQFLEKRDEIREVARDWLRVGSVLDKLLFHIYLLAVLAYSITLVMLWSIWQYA
Format: binding

| SMILES | Ki [µM] |
| --- | --- |
| Clc1cc2cnc(NC3=NO[C@@]4(C3)CN3CCC4CC3)cc2cc1Cl [(R)-62, (R)—N-(6,7-dichloroisoquinolin-3-yl)-4H-1′-azaspiro[isoxazole-5,3′-bicyclo[2.2.2]octan]-3-amine trifluoroacetate] | > 10 |
| Clc1ccc(NC2=NOC3(C2)CN2CCC3CC2)cc1Cl (single isomer, unassigned) [Compound 21-P1, N-(3,4-dichlorophenyl)-4H-1′-azaspiro[isoxazole-5,3′-bicyclo[2.2.2]octan]-3-amine] | 0.0415 |
| Clc1ccc(NC2=NO[C@@]3(C2)CN2CCC3CC2)cc1 [(R)-20, (R)—N-(4-chlorophenyl)-4H-1′-azaspiro[isoxazole-5,3′-bicyclo[2.2.2]octan]-3-amine hydrochloride] | 0.11 |
| Clc1cccc(NC2=NO[C@@]3(C2)CN2CCC3CC2)c1 [(R)-34, (R)—N-(3-chlorophenyl)-4H-1′-azaspiro[isoxazole-5,3′-bicyclo[2.2.2]octan]-3-amine hydrochloride] | 0.012 |
| Cc1cc2cnc(NC3=NO[C@@]4(C3)CN3CCC4CC3)cc2s1 [(R)-99, (R)-N-(2-methylthieno[3,2-c]pyridin-6-yl)spiro[4H-isoxazole-5,3′-quinuclidine]-3-amine hydrochloride] | > 10 |

Same assay, conditions: CHO cell membranes expressing human 5-HT3 receptors, [3H]BRL 43694, 120 min at room temperature; read-out: h-5HT3 Ki

| SMILES | Ki [µM] |
| --- | --- |
| Cc1coc2cc(NC3=NO[C@@]4(C3)CN3CCC4CC3)ccc12 [(R)-74, (R)—N-(3-methylbenzofuran-6-yl)-4H-1′-azaspiro[isoxazole-5,3′-bicyclo[2.2.2]octan]-3-amine hydrochloride] | > 10 |
| Clc1ccc2cnc(NC3=NO[C@@]4(C3)CN3CCC4CC3)nc2c1 [(R)-49, (R)—N-(7-chloroquinazolin-2-yl)-4H-1′-azaspiro[isoxazole-5,3′-bicyclo[2.2.2]octan]-3-amine] | > 10 |
| Fc1sc2cc(NC3=NO[C@@]4(C3)CN3CCC4CC3)ccc2c1F [(R)-55, hydrochloride] | 2.2 |
| Cc1cc2cc(NC3=NO[C@@]4(C3)CN3CCC4CC3)ccc2s1 [(R)-43, (R)—N-(2-methylbenzo[b]thiophen-5-yl)-4H-1′-azaspiro[isoxazole-5,3′-bicyclo[2.2.2.]octan]-3-amine hydrochloride] | 5.9 |
| COc1ccc2cc(NC3=NO[C@@]4(C3)CN3CCC4CC3)ncc2c1 [(R)-46, (R)—N-(7-methoxyisoquinolin-3-yl)-4H-1′-azaspiro[isoxazole-5,3′-bicyclo[2.2.2]octan]-3-amine hydrochloride] | > 10 |
| Fc1cc2cnc(NC3=NO[C@@]4(C3)CN3CCC4CC3)cc2cc1F [(R)-61, (R)—N-(6,7-difluoroisoquinolin-3-yl)-4H-1′-azaspiro[isoxazole-5,3′-bicyclo[2.2.2]octan]-3-amine hydrochloride] | > 10 |
| Clc1ccc2nc(NC3=NO[C@@]4(C3)CN3CCC4CC3)ncc2c1 [(R)-48, (R)—N-(6-chloroquinazolin-2-yl)-4H-1′-azaspiro[isoxazole-5,3′-bicyclo[2.2.2]octan]-3-amine hydrochloride] | > 10 |
| c1ccc2sc(NC3=NOC4(C3)CN3CCC4CC3)cc2c1 (racemic) [rac-12, (+/−)-N-(benzo[b]thiophen-2-yl)-4H-1′-azaspiro[isoxazole-5,3′-bicyclo[2.2.2]octan]-3-amine] | 1.8 |
| Clc1cccc2nc(NC3=NO[C@@]4(C3)CN3CCC4CC3)sc12 [(R)-11, (R)—N-(7-chlorobenzo[d]thiazol-2-yl)-4H-1′-azaspiro[isoxazole-5,3′-bicyclo[2.2.2]octan]-3-amine] | 0.305 |
| Fc1ccc2cc(NC3=NO[C@@]4(C3)CN3CCC4CC3)ncc2c1 [(R)-44, (R)—N-(7-fluoroisoquinolin-3-yl)-4H-F-azaspiro[isoxazole-5,3^1-bicyclo[2.2.2]octan]-3-amine hydrochloride] | > 10 |
| Cc1cc2ccc(NC3=NO[C@@]4(C3)CN3CCC4CC3)nc2s1 [(R)-53, (R)—N-(2-methylthieno[2,3-b]pyridin-6-yl)-4H-1′-azaspiro[isoxazole-5,3′-bicyclo[2.2.2]octan]-3-amine hydrochloride] | > 10 |
| Clc1ccc2cc(NC3=NO[C@@]4(C3)CN3CCC4CC3)ncc2c1 [(R)-19, (R)—N-(7-chloroisoquinolin-3-yl)-4H-1′-azaspiro[isoxazole-5,3′-bicyclo[2.2.2]octan]-3-amine hydrochloride] | > 10 |
| COc1ccc2nc(NC3=NOC4(C3)CN3CCC4CC3)sc2c1 (single isomer, unassigned) [Compound 4-P2, N-(6-methoxybenzo[d]thiazol-2-yl)-4H-1′-azaspiro[isoxazole-5,3′-bicyclo[2.2.2]octan]-3-amine] | > 10 |
| Clc1csc2cc(NC3=NO[C@@]4(C3)CN3CCC4CC3)ccc12 [(R)-76, (R)—N -(3-chlorobenzo[b]thiophen-6-yl)-4H-1′-azaspiro[isoxazole-5,3′-bicyclo[2.2.2]octan]-3-amine hydrochloride] | 2.8 |
| FC(F)(F)c1ccc2cnc(NC3=NO[C@@]4(C3)CN3CCC4CC3)cc2c1 [(R)-83, (R)—N-(6-(trifluoromethypisoquinolin-3-yl)-4H-1′-azaspiro[isoxazole-5,3′-bicyclo[2.2.2]octan]-3-amine hydrochloride] | > 10 |
| c1cc2sc(NC3=NO[C@@]4(C3)CN3CCC4CC3)nc2cc1C1CC1 [(R)-26, (R)—N -(5-cyclopropylbenzo[d]thiazol-2-yl)-4H-1′-azaspiro[isoxazole-5,3′-bicyclo[2.2.2]octan]-3-amine hydrochloride] | 3.1 |
| Cc1cc2ccc(NC3=NO[C@@]4(C3)CN3CCC4CC3)cc2o1 [(R)-40, (R)—N-(2-methylbenzofuran-6-yl)-4H-1′-azaspiro[isoxazole-5,3′-bicyclo[2.2.2]octan]-3-amine hydrochloride] | > 10 |
| Fc1cc2cnc(NC3=NO[C@@]4(C3)CN3CCC4CC3)cc2cc1Cl [(R)-81, (R)—N-(6-chloro-7-fluoroisoquinolin-3-yl)-4H-1′-azaspiro[isoxazole-5,3^1-bicyclo[2.2.2]octan]-3-amine hydrochloride] | > 10 |
| Cc1ccc2nc(NC3=NO[C@@]4(C3)CN3CCC4CC3)ncc2c1 [(R)-70, (R)—N-(6-methylquinazolin-2-yl)spiro[4H-isoxazole-5,3^1-quinuclidine]-3-amine] | > 10 |
| Cc1noc2cc(NC3=NO[C@@]4(C3)CN3CCC4CC3)ccc12 [(R)-66, (R)—N -(3-methylbenzo[d]isoxazol-6-yl)-4H-1′-azaspiro[isoxazole-5,3′-bicyclo[2.2.2]octan]-3-amine hydrochloride] | 4.5 |
| Clc1ccc2sc(NC3=NOC4(C3)CN3CCC4CC3)nc2c1 (single isomer, unassigned) [Compound 9-P2, N-(5-chlorobenzo[d]thiazol-2-yl)-4H-1′-azaspiro[isoxazole-5,3′-bicyclo[2.2.2]octan]-3-amine] | > 10 |
| c1ccc2nc(NC3=NO[C@@]4(C3)CN3CCC4CC3)ncc2c1 [(R)-22, (R)—N-(quinazolin-2-yl)-4H-1′-azaspiro[isoxazole-5,3′-bicyclo[2.2.2]octan]-3-amine hydrochloride] | 5.2 |
| Clc1cc2nc(NC3=NO[C@@]4(C3)CN3CCC4CC3)sc2cc1Cl [(R)-30, (R)—N-(5 ,6 - dichlor obenzo[d]thiazol-2-yl)-4H-1′-azaspiro[isoxazole-5,3′-bicyclo[2.2.2]octan]-3-amine hydrochloride] | > 10 |
| Clc1cccc2cc(NC3=NO[C@@]4(C3)CN3CCC4CC3)ncc12 [(R)-23, (R)—N-(8-chloroisoquinolin-3-yl)-4H-1′-azaspiroksoxazole-5,3^1-bicyclo[2.2.2]octan1-3-amine hydrochloride] | 1.2 |
| Clc1cc2ccc(NC3=NO[C@@]4(C3)CN3CCC4CC3)cc2o1 [(R)-63, (R)—N-(2-chlorobenzofuran-6-yl)-4H-1′-azaspiro[isoxazole-5,3′-bicyclo[2.2.2]octan]-3-amine hydrochloride] | > 10 |
| Clc1cc2ccc(NC3=NO[C@@]4(C3)CN3CCC4CC3)cc2s1 [(R)-54, (R)—N-(2-chlorobenzo[b]thiophen-6-yl)-4H-F-azaspiroksoxazole-5,3^1-bicyclo[2.2.2]octan1-3-amine hydrochloride] | > 10 |
| Cc1ccc2cnc(NC3=NO[C@@]4(C3)CN3CCC4CC3)nc2c1 [(R)-71, (R)—N-(7-methylquinazolin-2-yl)-4H-1′-azaspiro[isoxazole-5,3′-bicyclo[2.2.2]octan]-3-amine hydrochloride] | 6.4 |
| COc1ccc2cnc(NC3=NO[C@@]4(C3)CN3CCC4CC3)cc2c1 [(R)-47, (R)—N-(6-methoxyisoquinolin-3-yl)-4H-1′-azaspiro[isoxazole-5,3′-bicyclo[2.2.2]octan]-3-amine hydrochloride] | > 10 |
| c1ccc2oc(NC3=NOC4(C3)CN3CCC4CC3)nc2c1 (single isomer, unassigned) [Compound 13-P1, N-(benzo[d]oxazol-2-yl)-4H-1′-azaspiro[isoxazole-5,3′-bicyclo[2.2.2]octan]-3-amine] | 2.4 |
| Cc1ccc2sc(NC3=NO[C@@]4(C3)CN3CCC4CC3)nc2c1 [(R)-25, (R)—N -(5-methylbenzo[d]thiazol-2-yl)-4H-1′-azaspiro[isoxazole-5,3′-bicyclo[2.2.2]octan]-3-amine hydrochloride] | 4.2 |

Same assay, conditions: read-out: h-5HT3 Ki

| SMILES | Ki [µM] |
| --- | --- |
| c1cnc2cc(NC3=NO[C@@]4(C3)CN3CCC4CC3)ccc2c1 [(R)-79, (R)—N-(quinolin-7-yl)-4H-1′-azaspiro[isoxazole-5,3′-bicyclo[2.2.2]octan]-3-amine hydrochloride] | 5.6 |
